# According to US8790712B2, “Constitutional function-improving agents” (Cosmo Oil Co., Ltd., priority 2004, dated 2014):
# Experiments:
# Format in all cases: in vivo, mouse
# ALA dehydrase (ALAD) = assay: ALAD activity of blood (Example 5); conditions: male mice, 10 mg/kg orally once a day for 7 days
# Method: (§1) Mice (35 to 45 weeks old, BALB/cAJc1) preliminary raised for 1 week were injected with 10 mg of ALA hydrochloride per 1 kg mouse body weight once a day for 7 days continuously. ALA hydrochloride was adjusted to a concentration of […] with distilled water and orally administered to the mice. After the test, each mouse was sacrificed to collect mouse blood, and ALA dehydrase (ALAD) activity (the activity of ALA in which it is dimerized and thereby forms porphobilinogen (hereinafter referred to as “PBG”) as one molecule pyrrole substance) and porphobilinogen deaminase (PBGD) activity (the activity to convert from PBG to hydroxymethylbilane) per 1 ml of the blood were measured. […] To 0.02 ml of heparin-treated mouse whole blood, 0.33 ml of distilled water was added, the mixture was adjusted to a total volume of 0.5 ml by adding thereto 0.05 ml of 0.5 M Na-phosphate buffer (pH 6.4), 0.05 ml of 0.1 M DTT (containing 1 mM ZnSO4) and 0.05 ml of 50 mM ALA hydrochloride and was kept at 37° C. for 30 minutes, the reaction was stopped by adding 0.5 ml of 1 M trichloroacetic acid, and then Ehrlich reagent was added to a supernatant after centrifugation at 3000 rpm in the same volume, and precisely 10 minutes thereafter, absorbance at 553 nm, which is a characteristic absorbance of the compound formed by the reaction of Ehrlich reagent with PBG, was measured (OD) using a spectrophotometer. […]
# [1] = test system: glutathione peroxidase (GPx); assay: GPx activity of thymus tissue (Example 3); conditions: 10 mg/kg orally once a day for 7 days
# Method: Mice (35 to 45 weeks old, BALB/cAJc1) preliminary raised for 1 week were injected with 10 mg of ALA hydrochloride per 1 kg mouse body weight once a day for 7 days continuously. ALA hydrochloride was adjusted to a concentration of […] with distilled water and orally administered to the mice. After the test, each mouse was sacrificed and the thymus of mouse was collected to measure superoxide dismutase (SOD) activity of its tissue. To the collected thymus, 1.0 ml of 0.25 M sucrose solution was added, and the mixture homogenized and then centrifuged at 10,000 G for 10 minutes, and the resulting supernatant solution was used as the enzyme solution. […] That is, 250 μl of a reaction solution containing 125 μl of 0.1 M potassium phosphate buffer (pH 7.5), 10 μl of the enzyme liquid, 60 μl of 0.1 unit/ml xanthine oxidase, 45 μl of distilled water and 10 μl of 0.3 mM MPEC was dispensed into Luminescencer-PSN (manufactured by Atto Corp.), 50 μl of 0.72 mM hypoxanthine (pH 7.5) was added for emission. […]
# In addition, glutathione peroxidase (GPx) activity was also measured. […]
# The calculation was carried out by the following formula using the molecular extinction coefficient of NADPH of a=6.3 cm^2/μmole, by calculating the slope of straight line ΔOD (ΔOD=Δcm (quantity of change of y axis)×OD Max/full cm) from the chart. […]
# [2] = test system: superoxide dismutase (SOD); assay: SOD activity of thymus tissue (Example 3); conditions: 10 mg/kg orally once a day for 7 days
# Method: Mice (35 to 45 weeks old, BALB/cAJc1) preliminary raised for 1 week were injected with 10 mg of ALA hydrochloride per 1 kg mouse body weight once a day for 7 days continuously. ALA hydrochloride was adjusted to a concentration of […] with distilled water and orally administered to the mice. After the test, each mouse was sacrificed and the thymus of mouse was collected to measure superoxide dismutase (SOD) activity of its tissue. To the collected thymus, 1.0 ml of 0.25 M sucrose solution was added, and the mixture homogenized and then centrifuged at 10,000 G for 10 minutes, and the resulting supernatant solution was used as the enzyme solution. The measurement was carried out using an emission reagent for antioxidant ability measurement, MPEC (2-methyl-6-p-methoxyphenylethynylimidazopyrazinone) (manufactured by Atto Corp.). That is, 250 μl of a reaction solution containing 125 μl of 0.1 M potassium phosphate buffer (pH 7.5), 10 μl of the enzyme liquid, 60 μl of 0.1 unit/ml xanthine oxidase, 45 μl of distilled water and 10 μl of 0.3 mM MPEC was dispensed into Luminescencer-PSN (manufactured by Atto Corp.), 50 μl of 0.72 mM hypoxanthine (pH 7.5) was added for emission. For the calculation of emission inhibition ratio, the buffer was used instead of the enzyme liquid. For the calculation, a calibration curve was prepared using standard SOD, and the concentration calculation was carried out using this.
# The test was carried out using 5 male and 5 female mice, a total of 10 animals, for each plot, and the values were shown by average value. It was confirmed that the SOD activity or GPx activity is improved in both cases of male and female in the ALA-treated plot.
# CD4-CD8+ cells = assay: Subset test of lymphocytes from thymus (Example 2); conditions: 10 mg/kg orally once a day for 7 days
# Method: Mice (35 to 45 weeks old, BALB/cAJc1) preliminary raised for 1 week were injected with 10 mg of ALA hydrochloride per 1 kg mouse body weight once a day for 7 days continuously. ALA hydrochloride was adjusted to a concentration of […] with distilled water and orally administered to the mice. After the test, each mouse was sacrificed and the weight of its thymus and the number of cells were measured. In addition, a subset test of lymphocytes was carried out using the obtained cells. The test was carried out using 5 mice per 1 plot, and their values were shown by average value. […] Also, since the cell of CD4-CD8+ was increased in the ALA-treated plot based on the subset test, it was confirmed that the cytotoxic T cell increases after its future differentiation, so that its immunological function improving ability was shown (Table 3). In addition, photographs of the thymus of untreated plot (un-administered group) and the thymus of ALA-treated plot (ALA-treated group) are shown in FIG. 1.
# [3] = test system: porphobilinogen deaminase (PBGD); assay: PBGD activity of blood (Example 5); conditions: male mice, 10 mg/kg orally once a day for 7 days
# Method: as §1
smiles,measurement,setting,value
"NCC(=O)CCC(=O)O [ALA, 5-aminolevulinic acid]",ALAD activity,ALA dehydrase (ALAD),1.76 μmol PBG/ml RBC/h
same,GPx activity,[1]; female mice,0.67 U/ml
same,GPx activity,[1]; male mice,0.61 U/ml
same,SOD activity,[2]; female mice,30.7 U/ml
same,Total SOD activity,[2]; female mice,31.84 U/organ
same,SOD activity,[2]; male mice,20.2 U/ml
same,Total SOD activity,[2]; male mice,20.95 U/organ
same,CD4−CD8+ (%),CD4-CD8+ cells; female mice,3.25%
same,CD4−CD8+ (%),CD4-CD8+ cells; male mice,5.55%
same,PBGD activity,[3],67.36 nmol URO/ml RBC/h
